According to ChEMBL document CHEMBL5360613, “Unveiling New KRASG12D Inhibitors: A Promising Approach for Pancreatic Cancer Therapy” (ACS Med Chem Lett, 2023):

Molecular target: GTPase KRas (Homo sapiens, UniProt P01116, G12D)
Test: Inhibition of KRAS G12D mutant in human PANC-1 cells assessed as reduction in phosphorylation of ERK 1/2 level incubated for 3 hrs
Assay type: cell-based

Chain of GTPase KRas (P01116 whole entry G12D): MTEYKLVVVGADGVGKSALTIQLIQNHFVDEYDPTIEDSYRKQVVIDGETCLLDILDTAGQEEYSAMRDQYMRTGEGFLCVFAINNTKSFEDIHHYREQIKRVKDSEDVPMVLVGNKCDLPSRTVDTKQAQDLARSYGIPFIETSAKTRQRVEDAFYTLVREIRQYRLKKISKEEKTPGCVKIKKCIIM

| Compound | IC50 [nM] |
| --- | --- |
| Oc1cc(-c2ncc3c(N4C[C@H]5CC[C@@H](C4)N5)cc(OC[C@@]45CCCN4C[C@H](F)C5)nc3c2F)c2c(F)cccc2c1 | 40 |
| Oc1cc(N2CCc3c(nc(OCC45CCCN4CCC5)nc3N3C[C@H]4CC[C@@H](C3)N4)C2)c2c(Cl)cccc2c1 | 15 |
| CCc1c(F)ccc2cc(O)cc(-c3ncc4c(N5C[C@H]6CC[C@@H](C5)N6)cc(C#C[C@@]56CCCN5C[C@H](F)C6)nc4c3F)c12 | 305 |
| CCc1c(F)ccc2cc(O)cc(-c3ncc4c(N5C[C@H]6CC[C@@H](C5)N6)cc(OC[C@@]56CCCN5C[C@H](F)C6)nc4c3F)c12 | 46 |
| C#Cc1c(F)ccc2cc(O)cc(-c3ncc4c(N5C[C@H]6CC[C@@H](C5)N6)cc(C#C[C@@]56CCCN5C[C@H](F)C6)nc4c3F)c12 | 439 |

The remaining lines, values ahead:

| IC50 [nM] | Compound |
| --- | --- |
| 9.5 | C#Cc1cccc2cc(O)cc(-c3ncc4c(N5C[C@H]6CC[C@@H](C5)N6)cc(OC[C@@]56CCCN5C[C@H](F)C6)nc4c3F)c12 |
| 7.9 | C#Cc1c(F)ccc2cc(O)cc(-c3ncc4c(N5C[C@H]6CC[C@@H](C5)N6)cc(OC[C@@]56CCCN5C[C@H](F)C6)nc4c3F)c12 |
| 24 | C#Cc1c(F)ccc2cc(O)cc(-c3ncc4c(N5CC6CCC(C)(C5)N6)cc(OC[C@@]56CCCN5C[C@H](F)C6)nc4c3F)c12 (stereo partly drawn) |
